In patent EP0293500A1, “3-heteroalkyl-2,4.quinzaoline-diones” (AMERICAN CYANAMID COMPANY, priority 1987, dated 1988):
Where a name gives a salt, the structure may show the parent alone.

Tested on: spontaneously hypertensive rats of the Okamoto strain
Test: Hypotensive activity in spontaneously hypertensive rats (method of Chan and Poorvin)
Format: in vivo
Settings: male SHR, average MABP 160±1.5 mm of mercury; gavage, 100 mg/kg or less, second identical dose 24 hours later; MABP at 28 hours after the initial dose; number of rats in brackets
Description: The novel compounds of the present invention are also active hypotensive agents and were tested for hypotensive activity by the method of P. S. Chan and b. Poorvin, Clinical and Experimental Hypertension, 1 (6), 817-830 (1979). Male, 16 week old, spontaneously hypertensive rats of the Okamoto strain, from Taconic Farms, Germantown, New York having an average mean arterial blood pressure of 160±1.5 mm of mercury were used in the test. […] A second identical dose of the test compound, without sodium chloride loading is given 24 hours later. At 28 hours after the initial dose, the mean arterial blood pressure (MABP) is measured by the method of Chan and Poorvin vide supra. The procedure is repeated in a second and third rat when necessary. The results of this test on representative compounds of the present invention appear in Table II below.

**Q.** For `Cl.Cl.O=c1c2ccccc2ncn1CCCCCn1ccnc1` [Example 137, 3-[5-(1H-Imidazol-1-yl)pentyl]-4(3H)-quinazolinone, dihydrochloride], which “MABP/mm Hg (no. of rats)” value is on record?
**A.** 110(2) mm Hg

**Q.** Which “MABP/mm Hg (no. of rats)” value does the source give for `CC(CCn1cnc2ccccc2c1=O)n1ccnc1.O=C(O)/C=C/C(=O)O` (centres unmarked) [3-[3-(1H-Imidazol-1-yl)butyl]-4(3H)-quinazolinone, fumarate salt] here?
**A.** 119(2) mm Hg

**Q.** Which “MABP/mm Hg (no. of rats)” value does the source give for `O=c1c2ccc(Cl)cc2ncn1CCCCn1ccnc1` [Example 149, 7-Chloro-3-(4-(1H-imidazol-1-yl)butyl]-4(3H)-quinazolinone] here?
**A.** 126(2) mm Hg

**Q.** For `CCc1nc2ccc(Cl)cc2c(=O)n1CCCn1ccnc1` [Example 158, 6-Chloro-2-ethyl-3-[3-(1H-imidazol-1-yl)propyl]-4(3H)-quinazolinone], which “MABP/mm Hg (no. of rats)” value is on record?
**A.** 120(4) mm Hg

**Q.** For `Cc1ccc2c(=O)n(CCCCn3ccnc3)c(=O)[nH]c2c1C` [Example 50, 7,8-Dimethyl-3-[4-(1H-imidazol-1-yl)-butyl]-2,4(1H,3H)-quinazolinedione], which “MABP/mm Hg (no. of rats)” value is on record?
**A.** 104(2) mm Hg

**Q.** `O=c1c2cc(Cl)ccc2nnn1CCCCn1ccnc1` [Example 88, 6-Chloro-3-[4-(1H-imidazol-1-yl)-butyl]-1,2,3-benzotriazin-4(3H)-one] was tested. Which “MABP/mm Hg (no. of rats)” value did it give?
**A.** 105(2) mm Hg

Biological target: T1, thromboxane synthetase (Rattus norvegicus, UniProt P49430)
T1 construct: The platelets were isolated by centrifuging the PRP for 10 minutes at 1060xg; from tissue; host or cells: washed blood platelets from Okamoto-Aoki spontaneously hypertensive rats (SHR)
T1 sequence (P49430 1-533): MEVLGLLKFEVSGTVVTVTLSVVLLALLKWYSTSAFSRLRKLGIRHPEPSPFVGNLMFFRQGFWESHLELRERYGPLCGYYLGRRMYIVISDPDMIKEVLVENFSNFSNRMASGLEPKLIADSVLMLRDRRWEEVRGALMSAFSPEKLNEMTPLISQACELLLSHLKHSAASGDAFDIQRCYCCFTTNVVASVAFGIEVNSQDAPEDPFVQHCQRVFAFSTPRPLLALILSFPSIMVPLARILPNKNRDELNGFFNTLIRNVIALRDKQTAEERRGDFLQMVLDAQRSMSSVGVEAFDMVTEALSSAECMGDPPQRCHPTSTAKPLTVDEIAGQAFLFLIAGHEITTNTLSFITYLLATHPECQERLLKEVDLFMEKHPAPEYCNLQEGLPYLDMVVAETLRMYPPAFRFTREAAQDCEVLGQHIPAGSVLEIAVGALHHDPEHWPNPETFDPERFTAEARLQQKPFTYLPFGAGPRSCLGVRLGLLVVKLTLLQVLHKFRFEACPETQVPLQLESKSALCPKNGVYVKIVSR
Test: Inhibition of thromboxane (TX) formation (TXB2 radioimmunoassay) in washed rat platelets
Format: cell-based, Okamoto-Aoki spontaneously hypertensive rats (SHR)
Settings: percent inhibition of TXB2 formation; drug at 10^-4M; SHR platelet suspension, 10 minutes at 37 C
Excerpt: The platelet rich plasma (PRP) was separated. […] The inhibition of thromboxane (TX) formation was studied by determing the concentration of thromboxane […] (TXB2), the stable hydrolysis product of TXA2.

**Q.** With `Cc1cn(CCCn2nnc3ccc(Cl)cc3c2=O)cn1` [Example 92, 6-Chloro-3-[3-(4-methyl-1H-imida-zol-1-yl)propyl]-1,2,3-benzotria-zin-4(3H)-one] as the molecule, how does the inhibition at 100 µM read?
**A.** 85%

**Q.** Which inhibition at 100 µM does the source give for `O=c1c2ccc(Cl)cc2nnn1CCCCn1ccnc1` [Example 80, 7-Chloro-3-[4-(1H-imidazol-1-yl)-butyl]-1,2,3-benzotriazin-4(3H)-one] here?
**A.** 90%

**Q.** How did the inhibition at 100 µM turn out when `O=c1c2cc(Cl)ccc2nnn1CCCCCCCCCCn1ccnc1` [Example 91, 6-Chloro-3-[10-(1H-imidazol-1-yl)decyl]-1,2,3-benzotriazin-4(3H)-one, fumarate] was run?
**A.** 80%

**Q.** `O=c1c2cc(Cl)ccc2nnn1CCCCc1cccnc1` [Example 93, 6-Chloro-3-[4-(3-pyridinyl)butyl]-1,2,3-benzotria-zin-4(3H)-one] was tested. Which inhibition at 100 µM did it give?
**A.** 85%

**Q.** Which inhibition at 100 µM does the source give for `CC(Cn1ccnc1)Cn1c(=O)[nH]c2c(Cl)cc(Cl)cc2c1=O` (centres unmarked) [Example 48, 6,8-Dichloro-3-[3-(1H-imidazol-1-yl)-2-methylpropyl]-2,4(1H,3H)-quinazoline-dione] here?
**A.** 86%

**Q.** For `O=c1c2cc(Br)ccc2ncn1CCCCc1cccnc1` [6-Bromo-3-[4-(3-pyridyl)butyl]-4(3H)-quinazolinone], which inhibition at 100 µM is on record?
**A.** 99%

**Q.** With `O=c1c2cc(Cl)ccc2ncn1CCC(c1ccccc1)n1ccnc1` (centres unmarked) [Example 148, 6-Chloro-3-[3-(1H-imidazol-1-yl)-3-phenylpropyl]-4-(3H)-quinazolinone] as the molecule, how does the inhibition at 100 µM read?
**A.** 79%

**Q.** How did the inhibition at 100 µM turn out when `Cc1cn(CCCn2cnc3ccccc3c2=O)cn1` [Example 133, 3-[3-(4-Methyl-1H-imidazol-1-yl)propyl]-4(3H)-quinazolinone] was run?
**A.** 74%

**Q.** With `O=c1c2cc(Cl)cc(Cl)c2nnn1CCCCn1ccnc1` [Example 81, 6,8-Dichloro-3-[4-(1H-imidazol-1-yl)butyl]-1,2,3-benzotriazin-4(3H)-one, monohydrochloride] as the molecule, how does the inhibition at 100 µM read?
**A.** 93%

**Q.** How did the inhibition at 100 µM turn out when `CC(Cn1ccnc1)Cn1c(=O)[nH]c2c(Cl)cccc2c1=O` (centres unmarked) [Example 45, 8-Chloro-3-[3-(1H-imidazol-1-yl)-2-methylpropyl]-2,4(1H,3H)-quinazolinedione] was run?
**A.** 71%

**Q.** For `O=c1c2ccccc2nnn1CCCCc1cccnc1` [Example 90, 3-[4-(3-Pyridin-yl)butyl]-1,2,3-benzotriazin-4(3H)-one], which inhibition at 100 µM is on record?
**A.** 75%

**Q.** For `O=c1c2cc(Cl)ccc2nnn1CCCCn1ccnc1` [6-Chloro-3-[4-(1H-imidazol-1-yl)butyl]-1,2,3-benzotriazin-4(3H)-one, monohydro-chloride], which inhibition at 100 µM is on record?
**A.** 97%

**Q.** How did the inhibition at 100 µM turn out when `O=c1[nH]c2ccc(Cl)cc2c(=O)n1CCC(c1ccccc1)n1ccnc1` (centres unmarked) [Example 36, 6-Chloro-3-[3-(1H-imidazol-1-yl)-3-phenylpropyl]-2,4(1H,3H)-quinazolinedione] was run?
**A.** 93%

**Q.** `O=c1c2ccccc2ncn1CCCCCCn1ccnc1` [Example 136, 3-[6-(1H-Imidazol-1-yl)hexyl]-4(3H)-quinazolinone, dihydrochloride] was tested. Which inhibition at 100 µM did it give?
**A.** 86%

**Q.** For `CC(Cn1ccnc1)Cn1nnc2ccc(Cl)cc2c1=O` (centres unmarked) [6-Chloro-3-[3-(1H-imidazol-1-yl)-2-methyl-propyl]-1,2,3-benzotriazin-4(3H)-one, mono-hydrochloride], which inhibition at 100 µM is on record?
**A.** 93%

**Q.** With `O=c1c2cc(Cl)ccc2ncn1CCCCc1cccnc1` [Example 142, 6-Chloro-3-[4-(3-pyridyl)butyl]-4(3H)-quinazolinone] as the molecule, how does the inhibition at 100 µM read?
**A.** 100%

**Q.** With `O=c1[nH]c2ccc([N+](=O)[O-])cc2c(=O)n1CCCn1ccnc1` [Example 15, 3-[3-(1H-Imidazol-1-yl)propyl]-6-nitro-2,4(1H,3H)-quinazolinedione] as the molecule, how does the inhibition at 100 µM read?
**A.** 100%

**Q.** With `O=c1c2cccc(C(F)(F)F)c2nnn1CCCCCn1ccnc1` [Example 95, 3-[5-(1H-Imida-zol-1-yl)pentyl]-8-trifluoro-methyl-1,2,3-benzotriazin-4(3H)-one] as the molecule, how does the inhibition at 100 µM read?
**A.** 87%

**Q.** `O=c1c2cc(Cl)ccc2ncn1CCCn1ccnc1-c1ccccc1` [Example 144, 6-Chloro-3-[3-(2-phenyl-1H-imidazol-1-yl)propyl]-4(3H)-quinazolinone, dihydro-chloride] was tested. Which inhibition at 100 µM did it give?
**A.** 96%

**Q.** `O=c1[nH]c2ccc(Cl)cc2c(=O)n1CCCn1ccnc1-c1ccccc1` [Example 27, 6-Chloro-3-[3-(2-phenyl-1H-imidazol-1-yl)propyl]-2,4(1H,3H)-quinazolinedione] was tested. Which inhibition at 100 µM did it give?
**A.** 52%

**Q.** Which inhibition at 100 µM does the source give for `CC(Cn1ccnc1)Cn1cnc2ccc(Cl)cc2c1=O` (centres unmarked) [Example 141, 6-Chloro-3-[3-(1H-imidazol-1-yl)-2-methylpropyl]-4(3H)quinazolinone] here?
**A.** 94%

**Q.** For `O=c1[nH]c2ccc(Cl)cc2c(=O)n1CCCCc1cccnc1` [Example 29, 6-Chloro-3-[4-(3-pyridinyl)butyl]-2,4(1H,3H)-quinazolinedione], which inhibition at 100 µM is on record?
**A.** 100%

**Q.** With `CC(CCn1c(=O)[nH]c2c(Cl)cc(Cl)cc2c1=O)n1ccnc1` (centres unmarked) [Example 47, 6,8-Dichloro-3-[3-(1H-imidazol-1-yl)-butyl]-2,4(1H,3H)-quinazolinedione] as the molecule, how does the inhibition at 100 µM read?
**A.** 67%

**Q.** With `O=c1[nH]c2ccccc2c(=O)n1CCCCc1cccnc1` [Example 22, 3-[4-(3-Pyridinyl)butyl]-2,4(1H,3H)-quinazolinedione] as the molecule, how does the inhibition at 100 µM read?
**A.** 99%

**Q.** For `CC(Cn1ccnc1)Cn1nnc2ccc(Br)cc2c1=O` (centres unmarked) [Example 83, 6-Bromo-3-[3-(1H-imidazol-1-yl)--2-methylpropyl]-1,2,3-benzo-triazin-4(3H)-one], which inhibition at 100 µM is on record?
**A.** 99%

**Q.** How did the inhibition at 100 µM turn out when `O=c1c2ccccc2ncn1CCCCc1cccnc1` [Example 135, 3-[4-(3-Pyridyl)butyl]-4(3H)-quina-zolinone, dihydrochloride] was run?
**A.** 99%

**Q.** For `O=c1[nH]c2ccc(Br)cc2c(=O)n1CCCn1ccnc1` [Example 51, 6-Bromo-3-[3-(1H-imidazol-1-yl)propyl]-2,4(1H,3H)-quinazolinedione], which inhibition at 100 µM is on record?
**A.** 100%

**Q.** `O=c1c2cccc(C(F)(F)F)c2nnn1CCCCn1ccnc1` [Example 94, 3-[4-(1H-Imida-zol-1-yl)butyl]-8-trifluoro-methyl-1,2,3-benzotriazin-4(3H)-one] was tested. Which inhibition at 100 µM did it give?
**A.** 86%

**Q.** `Cc1ccc2nnn(CC(C)Cn3ccnc3)c(=O)c2c1` (centres unmarked) [Example 85, 3-[3-(1H-Imidazol-1-yl)-2-methyl-propyl]-6-methyl-1,2,3-benzo-triazin-4(3H)-one, monohydro-chloride] was tested. Which inhibition at 100 µM did it give?
**A.** 95%

**Q.** Which inhibition at 100 µM does the source give for `O=c1[nH]c2ccc(Cl)cc2c(=O)n1CCCCCn1ccnc1` [Example 32, 6-Chloro-3-[5-(1H-imidazol-1-yl)pentyl]-2,4(1H,3H)-quinazolinedione] here?
**A.** 63%

**Q.** `O=c1[nH]c2c(Cl)cc(Cl)cc2c(=O)n1CCCCn1ccnc1` [Example 46, 6,8-Dichloro-3-[4-(1H-imidazol-1-yl)-butyl]-2,4(1H,3H)-quinazolinedione] was tested. Which inhibition at 100 µM did it give?
**A.** 89%

**Q.** How did the inhibition at 100 µM turn out when `CC(Cn1ccnc1)Cn1nnc2ccccc2c1=O` (centres unmarked) [Example 78, 3-[3-(1H-Imidazol-1-yl)-2-methyl-propyl]-1,2,3-benzotriazin-4(3H)-one, monohydrochloride] was run?
**A.** 92%
